How the values were obtained:
FIMMI = assay: Example VI in-water applied ternary mixtures, greenhouse, transplanted paddy rice weeds; type: in vivo, Fimbristylis miliacea (L.) Vahl
Procedure, shortened: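 Compound A (SC, acid-equivalent basis) alone or with cyhalofop-R-butyl or metamifop plus a third herbicide, injected into paddy water of greenhouse-grown transplanted rice and weeds at 1st–4th leaf stage (~29/26 °C). Visual injury scored 0–100% after ~3 weeks vs untreated; expected mixture effects by Colby's equation.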

LEFCH = assay: Example V (second) postemergence foliar-applied ternary mixtures, greenhouse, direct seeded rice weeds; type: in vivo, Leptochloa chinensis (L.) Nees
Procedure: The treated plants and control plants were placed in a greenhouse as described above and watered by sub-irrigation to prevent wash-off of the test compounds. After approximately 3 weeks, the condition of the test plants as compared with that of the untreated plants was determined visually and scored on a scale of 0 to 100 percent where 0 corresponds to no injury or growth inhibition and 100 corresponds to complete kill.
Colby's equation was used to determine the herbicidal effects expected from the mixtures (Colby, S. R. 1967. Calculation of the synergistic and antagonistic response of herbicide combinations. Weeds 15:20-22.).
The following equation was used to calculate the expected activity of mixtures containing three active ingredients, A, B, and C: Expected=A+B+C−((A×B+A×C+B×C)/100)+(A×B×C/10000)

COc1c(Cl)ccc(-c2nc(C(=O)OCc3ccccc3)c(Cl)c(N)c2F)c1F [Compound A Benzyl Ester, benzyl ester of 4-amino-3-chloro-5-fluoro-6-(4-chloro-2-fluoro-3-methoxy-phenyl)pyridine-2-carboxylic acid]
Visual Weed Control (%) - 21 DAA FIMMI Obs (FIMMI; 1.09 gae/ha): 8%
Visual Weed Control (%) - 21 DAA FIMMI Obs (FIMMI; 1.09 gae/ha, first set): 8%
Visual Weed Control (%) - 21 DAA FIMMI Obs (FIMMI; 2.19 gae/ha): 33%
Visual Weed Control (%) - 21 DAA FIMMI Obs (FIMMI; 2.19 gae/ha, first set): 33%
Visual Weed Control (%) - 24 DAA FIMMI Obs (FIMMI; 4 gae/ha): 0%
Visual Weed Control (%) - 21 DAA FIMMI Obs (FIMMI; 4 gae/ha, second set): 62%
Visual Weed Control (%) - 24 DAA FIMMI Obs (FIMMI; 8 gae/ha): 50%
Visual Weed Control (%) - 24 DAA FIMMI Obs (FIMMI; 16 gae/ha): 30%
Visual Weed Control (%) - 24 DAA FIMMI Obs (FIMMI; Table 67, 4 gae/ha, 24 DAA): 0%
Visual Weed Control (%) - 24 DAA FIMMI Obs (FIMMI; Table 67, 8 gae/ha, 24 DAA): 50%
Visual Weed Control (%) - 24 DAA FIMMI Obs (FIMMI; Table 67, 16 gae/ha, 24 DAA): 30%
Visual Weed Control (%) - 22 DAA LEFCH Obs (LEFCH; 8 gae/ha): 28%
Visual Weed Control (%) - 21 DAA LEFCH Obs (LEFCH; 16 gae/ha): 25%

CCCCOC(=O)[C@@H](C)Oc1ccc(Oc2ccc(C#N)cc2F)cc1 [Cyhalofop-butyl, butyl(2R)-2-[4-(4-cyano-2-fluorophenoxy)phenoxy]propanoate, reference compound]
Visual Weed Control (%) - 21 DAA FIMMI Obs (FIMMI; 22.5 gai/ha): 33%
Visual Weed Control (%) - 21 DAA FIMMI Obs (FIMMI; 22.5 gai/ha, second set): 0%
Visual Weed Control (%) - 21 DAA FIMMI Obs (FIMMI; 45 gai/ha): 0%
Visual Weed Control (%) - 21 DAA FIMMI Obs (FIMMI; 45 gai/ha, first set): 0%
Visual Weed Control (%) - 21 DAA FIMMI Obs (FIMMI; 45 gai/ha, second set): 0%
Visual Weed Control (%) - 24 DAA FIMMI Obs (FIMMI; 90 gai/ha): 0%
Visual Weed Control (%) - 24 DAA FIMMI Obs (FIMMI; 180 gai/ha): 20%
Visual Weed Control (%) - 24 DAA FIMMI Obs (FIMMI; Table 67, 180 gai/ha, 24 DAA): 20%
Visual Weed Control (%) - 21 DAA LEFCH Obs (LEFCH; 35 gai/ha): 68%
Visual Weed Control (%) - 22 DAA LEFCH Obs (LEFCH; 35 gai/ha): 70%

From patent US9232796B2, “Herbicidal compositions comprising 4-amino-3-chloro-5-fluoro-6-(4-chloro-2-fluoro-3-methoxyphenyl) pyridine-2-carboxylic acid or a derivative thereof and acetyl-CoA carboxylase (ACCase) inhibitors” (DOW AGROSCIENCES LLC, priority 2012, dated 2016)
